# Data: article PMC2762729 (Biochemistry, 2009)
# Entries after “also recorded” stand apart in the source; their conditions may differ. Read-outs that look alike come from different tables or passages of the source.
# Experiments:
# saporin-L1 [1] = format: biochemical, Saponaria officinalis
# [2] = test system: 35-mer synthetic SRL mimic with GAGA tetraloop; settings: cited from earlier work
# saporin-L1 [3] = format: biochemical, Saponaria officinalis; remark: listed apart in the source
# saporin-L1 [4] = molecular target: T1, saporin-L1 (Saponaria officinalis, UniProt Q2QEH4); experiment: Competitive inhibition of A-10 RNA
# saporin-L1 [5] = settings: pH 7.8; cited from earlier work
# saporin-L1 [6] = molecular target: T1, saporin-L1; format: biochemical; settings: read-out: EC50, rescue of translation; n = 3
# saporin-L1 [7] = molecular target: T1, saporin-L1; experiment: Competitive inhibition of A-10 RNA; remark: listed apart in the source
# T1 sequence (Q2QEH4 22-280 limits assumed): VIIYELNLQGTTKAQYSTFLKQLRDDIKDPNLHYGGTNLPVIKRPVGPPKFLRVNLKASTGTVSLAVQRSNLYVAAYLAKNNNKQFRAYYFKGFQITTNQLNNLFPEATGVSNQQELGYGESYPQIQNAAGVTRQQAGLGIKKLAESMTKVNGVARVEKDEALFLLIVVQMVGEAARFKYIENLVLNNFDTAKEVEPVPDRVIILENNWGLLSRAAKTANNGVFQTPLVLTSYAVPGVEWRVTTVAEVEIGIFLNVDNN
compound,measurement,setting,value
5′-CGCGAGAGCG-3′ [A-10 RNA],"Km, fold lower with saporin-L1 than with saporin-S6",saporin-L1 [1],4 fold
same,"Km, fold tighter than poly(A) RNA",saporin-L1 [1],4.5 fold
same,"kcat/Km, fold increased catalytic efficiency over poly(A) RNA",saporin-L1 [1],45 fold
same,"kcat/Km, fold more efficient with saporin-L1 than with saporin-S6",saporin-L1 [1],"4,800 fold"
same,Km,saporin-L1 [1]; pH 7.7,95 ± 7 µM
same,kcat,saporin-L1 [1]; pH 7.7,7.33 ± 0.267 s⁻¹
gelonin,activity (in words),[2],no detectable activity
"Nc1ncnc2c(CN3C[C@H](CO)[C@@H](O)C3)c[nH]c12 [9-DA, 9-deazaadenine-9-methylene-N-hydroxypyrrolidine]",inhibition of saporin-L1 (in words),saporin-L1 [3],not an inhibitor; also recorded: poor inhibitor
same,Ki,saporin-L1 [3]; read-out: Ki (no slow onset observed),> 500000 nM
"Nc1ncnc2c(CN3C[C@H](CO)[C@@H](O)C3)c[nH]c12 [9-DA, 9-deazaadenine-9-methylene-N-hydroxypyrrolidine (DADMeA)]",Ki,saporin-L1 [4],> 500000 nM
poly(A),Km,saporin-L1 [5],639 ± 32 µM
same,kcat,saporin-L1 [5],1.02 ± 0.017 s⁻¹
CO[C@@H]1[C@H](OP(=O)(O)OCCCO)[C@@H](COP(=O)(O)O[C@H]2CN(Cc3c[nH]c4c(N)ncnc34)C[C@@H]2COP(=O)(O)OCCCO)O[C@H]1n1cnc2c(=O)[nH]c(N)nc21 [s3(9-DA)Gs3 2′-OMe],EC50,saporin-L1 [6],36 nM
same,Ki,saporin-L1 [7],6.4 ± 1.7 nM
trichosanthin,activity (in words),[2],no detectable activity
